Results taken from patent publication US12220412B2, “Methods for administering corticosteroids” (Sparrow Pharmaceuticals, Inc., priority 2018, dated 2025).

Assays:
HSD-1 = HSD-1 (Homo sapiens, UniProt P28845); assay: Urinary (tetrahydrocortisol+allotetrahydrocortisol)/tetrahydrocortisone ratio as indicator of HSD-1 activity in clinical trial subjects; format: in vivo; set-up: from tissue; host or cells: in vivo, human subjects; conditions: for HSD-1 ratio (tetrahydrocortisol [5α + 5β]/tetrahydrocortisone), Day 18 Median / HSD-1 ratio (tetrahydrocortisol [5α + 5β]/tetrahydrocortisone), Day 18 Mean: Day 18 after daily doses Days 5 through 18; for HSD-1 ratio (tetrahydrocortisol [5α + 5β]/tetrahydrocortisone), Day 18 Median / HSD-1 ratio (tetrahydrocortisol [5α + 5β]/tetrahydrocortisone), Day 1 Median / HSD-1 ratio (tetrahydrocortisol [5α + 5β]/tetrahydrocortisone), Day 1 mean / HSD-1 ratio (tetrahydrocortisol [5α + 5β]/tetrahydrocortisone), Day 18 Mean: 24 h urine; for HSD-1 ratio (tetrahydrocortisol [5α + 5β]/tetrahydrocortisone), Day 1 Median / HSD-1 ratio (tetrahydrocortisol [5α + 5β]/tetrahydrocortisone), Day 1 mean: Day 1 single dose; for mean HSD-1 ratio (significantly decreased HSD-1 activity): both days 1 and 18
Sequence of HSD-1 (P28845 whole entry): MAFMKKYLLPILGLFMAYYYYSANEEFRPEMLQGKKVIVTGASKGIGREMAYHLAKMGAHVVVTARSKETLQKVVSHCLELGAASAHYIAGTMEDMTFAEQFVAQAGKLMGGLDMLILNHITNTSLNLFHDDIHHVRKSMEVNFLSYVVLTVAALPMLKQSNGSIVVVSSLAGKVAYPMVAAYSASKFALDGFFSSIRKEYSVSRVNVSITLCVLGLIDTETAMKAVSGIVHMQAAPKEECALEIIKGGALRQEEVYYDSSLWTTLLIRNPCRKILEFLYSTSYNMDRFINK
Method: Following a minimum of a 10-hour fast, healthy adult racially diverse male and female subjects were administered Compound A (ASP3662) or placebo for Compound A with 240 mL of room temperature water. Subjects continued to fast from any food and drinks (water was allowed as desired except for 1 hour before and 1 hour after study drug administration) until 4 hours after study drug administration. Urine samples were collected for the measurement of cortisol, cortisone, tetrahydrocortisol (5α, 5β) and tetrahydrocortisone. The cumulative amount of each entity excreted in the urine was calculated for each subject from time zero to 24 hours after dosing (Ae24), from 24 hours after dosing to 48 hours after dosing (Ae48), and Aelast.
The ratio of 5α-tetrahydrocortisol+5β-tetrahydrocortisol to urinary tetrahydrocortisone was used as an indicator of HSD-1 activity. Compound A decreased the 5α-tetrahydrocortisol+5β-tetrahydrocortisol to urinary tetrahydrocortisone ratio with increasing dose compared to placebo, resulting in approximately 80% inhibition at 6 mg. […]

[1] = system: Adults with painful diabetic peripheral neuropathy; assay: 6-week randomized trial in adults with painful diabetic peripheral neuropathy (pain relief, glycemic control, lipids, blood pressure, weight); format: in vivo, human; set-up: Weight / HbA1c (%) / Plasma glucose / Urine glucose (% positive) / Cholesterol / Triglycerides / Systolic BP (mm Hg) / Diastolic BP (mm Hg): reference not given here
Method: Adults with painful diabetic peripheral neuropathy were randomized to treatment with SPI-62, placebo for SPI-62, or pregabalin (positive control) for 6 weeks. […] The trial was terminated. Descriptive analysis on parameters of glycemic control, blood lipids, blood pressure, and weight was conducted. […] As this was an exploratory analysis, statistical hypothesis tests were not performed.

[2] = Population pharmacokinetics model for Compound A from two clinical trials; format: in vivo, human
Method: On the basis of data from two Compound A clinical trials, a population pharmacokinetics model (FIG. 4) was developed using a maximal dose of 20 mg. The selected model to describe the pharmacokinetics of Compound A was a two-compartment disposition model, with a 4-compartment transit absorption, saturable binding from the central compartment, and first-order elimination. Inter-individual variability was implemented on clearance (CL), volume of distribution (V2), absorption rate constant (kA), second order association constant (Kon), first order dissociation constant (Koff), and total number of saturable binding receptors (R). This model had satisfactory goodness-of-fit and acceptable relative standard errors.
CL, kA, R, Kon, and Koff are defined above. BAV is relative bioavailability, kTR is a transit rate constant (equal to kA), k23 and k32 are transfer rate constants between central and peripheral compartments.
The covariate effect was moderate (25% increase of BAV in 88-year old subjects compared to 36-year old subjects).

mice = assay: Corticosterone-induced deficit of Y-maze exploration (alternation rate); format: in vivo; conditions: single doses of 0.3 to 3 mg/kg
Excerpt: (a) no CS; (b)-(f) CS; dosage of Compound A (mg/kg): (b) 0; (c) 0.01; (d) 0.03; (e) 1; (f) 3.
Mice typically prefer to explore the novel arm of a Y-maze, a behavior considered indicative of short-term memory. Corticosterone (CS) decreases the percentage of times mice enter the novel arm of a Y maze, and so is considered to have a negative cognitive effect.

[3] = healthy adult Japanese subjects, 20 mg
[4] = healthy adult Japanese subjects, 50 mg
[5] = healthy adult non-Japanese subjects, 20 mg
[6] = healthy adult non-Japanese subjects, 50 mg
[7] = adults with painful diabetic peripheral neuropathy, 6 weeks treatment, descriptive analysis

SMILES: Cn1c(-c2ccc(C(N)=O)cc2F)nnc1C(C)(C)Oc1c(F)cc(Cl)cc1F [Compound A]
- HSD-1 ratio (tetrahydrocortisol [5α + 5β]/tetrahydrocortisone), Day 18 Median (HSD-1; healthy adult Japanese subjects, 10 mg): 0.12
- HSD-1 ratio (tetrahydrocortisol [5α + 5β]/tetrahydrocortisone), Day 1 Median (HSD-1; [3]): 0.14
- HSD-1 ratio (tetrahydrocortisol [5α + 5β]/tetrahydrocortisone), Day 1 mean (HSD-1; [3]): 0.14
- HSD-1 ratio (tetrahydrocortisol [5α + 5β]/tetrahydrocortisone), Day 18 Mean (HSD-1; [3]): 0.09
- HSD-1 ratio (tetrahydrocortisol [5α + 5β]/tetrahydrocortisone), Day 18 Median (HSD-1; [3]): 0.10
- HSD-1 ratio (tetrahydrocortisol [5α + 5β]/tetrahydrocortisone), Day 1 Median (HSD-1; [4]): 0.14
- HSD-1 ratio (tetrahydrocortisol [5α + 5β]/tetrahydrocortisone), Day 1 mean (HSD-1; [4]): 0.14
- HSD-1 ratio (tetrahydrocortisol [5α + 5β]/tetrahydrocortisone), Day 18 Mean (HSD-1; [4]): 0.10
- HSD-1 ratio (tetrahydrocortisol [5α + 5β]/tetrahydrocortisone), Day 18 Median (HSD-1; [4]): 0.09
- mean HSD-1 ratio (significantly decreased HSD-1 activity) (HSD-1; healthy adult Japanese subjects, doses of 10 mg, 20 mg and 50 mg): 0.1 to 0.2
- HSD-1 activity (urinary ratio) (HSD-1; healthy adult non-Japanese subjects, 2 mg, 0.7 mg, 0.4 mg and 0.2 mg cohorts, single dose Day 1 then daily doses): significantly decreased
- HSD-1 ratio (tetrahydrocortisol [5α + 5β]/tetrahydrocortisone), Day 1 Median (HSD-1; [5]): 0.16
- HSD-1 ratio (tetrahydrocortisol [5α + 5β]/tetrahydrocortisone), Day 1 mean (HSD-1; [5]): 0.17
- HSD-1 ratio (tetrahydrocortisol [5α + 5β]/tetrahydrocortisone), Day 18 Mean (HSD-1; [5]): 0.12
- HSD-1 ratio (tetrahydrocortisol [5α + 5β]/tetrahydrocortisone), Day 18 Median (HSD-1; [5]): 0.12
- HSD-1 ratio (tetrahydrocortisol [5α + 5β]/tetrahydrocortisone), Day 1 Median (HSD-1; [6]): 0.16
- HSD-1 ratio (tetrahydrocortisol [5α + 5β]/tetrahydrocortisone), Day 1 mean (HSD-1; [6]): 0.16
- HSD-1 ratio (tetrahydrocortisol [5α + 5β]/tetrahydrocortisone), Day 18 Mean (HSD-1; [6]): 0.11
- HSD-1 ratio (tetrahydrocortisol [5α + 5β]/tetrahydrocortisone), Day 18 Median (HSD-1; [6]): 0.10
- mean HSD-1 ratio (significantly decreased HSD-1 activity) (HSD-1; healthy adult non-Japanese subjects, doses of 20 mg and 50 mg): approximately 0.1
- inhibition (decrease of 5α-tetrahydrocortisol+5β-tetrahydrocortisol to urinary tetrahydrocortisone ratio compared to placebo) (HSD-1; healthy adult subjects, fasted, single dose 6 mg): approximately 80%
- level of inhibition of urinary HSD-1 ratio on increasing the dose (HSD-1; healthy adult subjects, fasted, single dose above 6 mg): did not substantially increase the level of inhibition
- Cholesterol [1, 7]: -0.48 ± 0.12 mM
- Diastolic BP (mm Hg) [1, 7]: 0 ± 2 mm Hg
- HbA1c (%) [1, 7]: −0.31 ± 0.11%
- Plasma glucose [1, 7]: 0.084 ± 0.38 mM
- Systolic BP (mm Hg) [1, 7]: −1 ± 3 mm Hg
- Triglycerides [1, 7]: -0.11 ± 0.09 mM
- Urine glucose (% positive) [1, 7]: −2.5 ± 3.0 % positive
- Weight [1, 7]: -0.3 ± 0.3 kg
- trends compared to placebo on HbA1c, plasma glucose, urine glucose, cholesterol and triglycerides (not on systolic or diastolic blood pressure or weight) ([1]; exploratory descriptive analysis, no hypothesis tests): Favorable numeric trends
- pain relief compared to the placebo group ([1]; interim review after 150 subjects completed treatment): not any better
- increase of BAV (relative bioavailability), covariate effect of age ([2]; 88-year old subjects compared to 36-year old subjects): 25%
- Covariate: age on BAV (relative bioavailability), estimate ([2]; population PK model): 0.200
- Koff (first order dissociation constant, saturable binding), estimate ([2]; population PK model): 5.83e-05 s⁻¹
- Kon (second order association constant, saturable binding), estimate ([2]; population PK model): 0.0682 µg⁻¹ h⁻¹
- R (total number of saturable binding receptors), estimate ([2]; population PK model): 3170 nmol
- V2 (volume of distribution), estimate ([2]; population PK model): 90.2 L/70 kg
- amount of Compound A corresponding to estimated total number of saturable binding receptors ([2]; population PK model): 1.347 mg
- k23 (transfer rate constant between central and peripheral compartments), estimate ([2]; population PK model): 0.00341 h^−1/(70 kg)^−0.25
- k32 (transfer rate constant between central and peripheral compartments), estimate ([2]; population PK model): 0.0255 h^−1/(70 kg)^−0.25
- kA (absorption rate constant), estimate ([2]; population PK model): 5.38 h⁻¹
- CL (clearance), estimate ([2]; population PK model, doses up to 20 mg): 7.24 L/h/(70 kg)^0.75
- Y-maze novel arm exploration behavior (alternation rate) after corticosterone (mice): restored a more normal behavior pattern
